Columns and labels:
Format in all cases: in vivo
[1] = test system: bleomycin-induced pulmonary fibrosis; assay: Bleomycin-induced pulmonary fibrosis mouse model: wet lung weight; details: mice, BLM 0.06 U IT; IP daily for 14 days (PTX 10 mg/kg, NAC 20 mg/kg); vs BLM + saline; FIG. 3
Description: The composition including pentoxifylline (PTX) and N-acetyl-cysteine (NAC) was assessed in vivo in a mouse model using an experimental design in which a pulmonary fibrosis was generated using bleomycin injury of lung. Bleomycin (BLM) is an effective antineoplastic drug that binds to and damages DNA of tumour cells. However, administration of BLM may result in lung inflammation that can progress to fibrosis. This side effect is due mostly to augmented concentration of reactive oxygen species, decrease in nicotinamide adenine dinucleotide (NAD) and adenosine triphosphate (ATP), and overproduction of mature collagen fibrils. Because BLM-induced lung fibrosis is easily reproduced in different species of mammals, experimental models using the drug have been adopted with the goal of investigating the efficacy of the current invention. […] In this example, the effects of PTX and NAC in combination were studied in comparison to PTX and NAC individually. […] In addition, the lung weights were recorded, photographs of the lungs were taken and tissue samples processed either for biochemical analysis of hydroxyproline (immediately frozen on dry ice) or further morphological analysis (immersed in fixative solution of 10% neutral-buffered formalin).

TNF-α = assay: Bleomycin-induced pulmonary fibrosis mouse model: TNF-α in bronchoalveolar lavage fluid by ELISA; details: mice, day 5 post bleomycin instillation, PTX 10 mg/kg, NAC 20 mg/kg IP daily, FIG. 7
Description: Difference of TNF-α at day 5 post bleomycin instillation is shown. Values are means±SD; 5 mice per group. The composition including pentoxifylline (PTX) and N-acetyl-cysteine (NAC) was assessed in vivo in a mouse model using an experimental design in which a pulmonary fibrosis was generated using bleomycin injury of lung. Bleomycin (BLM) is an effective antineoplastic drug that binds to and damages DNA of tumour cells. However, administration of BLM may result in lung inflammation that can progress to fibrosis. This side effect is due mostly to augmented concentration of reactive oxygen species, decrease in nicotinamide adenine dinucleotide (NAD) and adenosine triphosphate (ATP), and overproduction of mature collagen fibrils. Because BLM-induced lung fibrosis is easily reproduced in different species of mammals, experimental models using the drug have been adopted with the goal of investigating the efficacy of the current invention. [table] Mice (under anesthesia) received a single intratracheal dose of either saline (control) or bleomycin (BLM). […] In addition, the lung weights were recorded, photographs of the lungs were taken and tissue samples processed either for biochemical analysis of hydroxyproline (immediately frozen on dry ice) or further morphological analysis (immersed in fixative solution of 10% neutral-buffered formalin). […]

[2] = test system: bleomycin-induced pulmonary fibrosis; assay: Bleomycin-induced pulmonary fibrosis mouse model: lung histopathology and semi-quantitative lesion score (Masson trichrome); details: mice, fourteen days after intratracheal bleomycin; PTX 10 mg/kg and/or NAC 20 mg/kg IP daily; vs untreated BLM animals
Description: FIG. 4 illustrates representative photomicrographs of lung histopathology. Normal lung histology is shown in panel A (Group I-saline). […] Collagen is stained with Masson trichrome (light blue color). Original ×10 and ×40 magnifications are shown. FIG. 5 illustrates the effect of pentoxifylline and N-acetyl-cysteine on histological lesions scores of the extent and severity of fibrosis in the experimental groups, as indicated. Data are representative of 5 independent experiments, presented as mean±SD (n=4). The composition including pentoxifylline (PTX) and N-acetyl-cysteine (NAC) was assessed in vivo in a mouse model using an experimental design in which a pulmonary fibrosis was generated using bleomycin injury of lung. Bleomycin (BLM) is an effective antineoplastic drug that binds to and damages DNA of tumour cells. However, administration of BLM may result in lung inflammation that can progress to fibrosis. […] In addition, the lung weights were recorded, photographs of the lungs were taken and tissue samples processed either for biochemical analysis of hydroxyproline (immediately frozen on dry ice) or further morphological analysis (immersed in fixative solution of 10% neutral-buffered formalin).

glutathione (GSH) = assay: Bleomycin-induced pulmonary fibrosis mouse model: total glutathione in bronchoalveolar lavage fluid; details: mice, BLM IT; NAC 20 mg/kg IP daily; FIG. 8
Description: FIG. 8 illustrates total glutathione levels in bronchoalveolar lavage fluid (BALF) in different experimental groups, as indicated. Data are representative of 4 independent experiments, and presented as mean±SD (n=5). The composition including pentoxifylline (PTX) and N-acetyl-cysteine (NAC) was assessed in vivo in a mouse model using an experimental design in which a pulmonary fibrosis was generated using bleomycin injury of lung. Bleomycin (BLM) is an effective antineoplastic drug that binds to and damages DNA of tumour cells. However, administration of BLM may result in lung inflammation that can progress to fibrosis. This side effect is due mostly to augmented concentration of reactive oxygen species, decrease in nicotinamide adenine dinucleotide (NAD) and adenosine triphosphate (ATP), and overproduction of mature collagen fibrils. Because BLM-induced lung fibrosis is easily reproduced in different species of mammals, experimental models using the drug have been adopted with the goal of investigating the efficacy of the current invention. [table] […] In addition, the lung weights were recorded, photographs of the lungs were taken and tissue samples processed either for biochemical analysis of hydroxyproline (immediately frozen on dry ice) or further morphological analysis (immersed in fixative solution of 10% neutral-buffered formalin). […]

| Compound | lung weight [1] | BLM-induced increase in TNF-α level in BALF (TNF-α) | anti-fibrotic effect seen in lung histology [2] | total glutathione (GSH) level in BALF (glutathione (GSH)) |
| --- | --- | --- | --- | --- |
| CC(=O)CCCCn1c(=O)c2c(ncn2C)n(C)c1=O [PTX, pentoxifylline] | lower lung weights were observed but statistical significance was not reached | significantly decreased |  |  |
| CC(=O)N[C@@H](CS)C(=O)O [NAC, N-acetyl-L-cysteine] | lower lung weights were observed but statistical significance was not reached | significantly decreased | marked anti-fibrotic effect | GSH levels can indeed be supplemented |

From patent US9029385B2, “Compositions and methods for treating fibroproliferative disorders” (priority 2007, dated 2015)
